We go through one molecule from patent publication US20070248705A1, “Agents for Activating the Transcription Factor Nrf2 and Foods Having Such Function” (KIRIN BEER KABUSHIKI KAISHA, priority 2004, published 2007).

This test relates to TNF-α. Briefly: Suppression of TNF-α production by macrophages (TPA and IFN-γ). The format is cell-based, mouse. To be noted: RAW264.7, TPA 400 nM and IFN-γ 10 units/ml, 5, 10, 20, and 40 μM, 24 hours. As to the method:
A mouse macrophage cell line RAW264.7 (4×10^4 cells/well) was seeded on a 96-well plate, […] of a D-MEM medium (Invitrogen) containing each sample, 10% fetal bovine serum (HyClone), and penicillin-streptomycin (100 units/ml and 100 μg/ml, respectively; Sigma) was added, and the plate was incubated at 37° C. in an atmosphere of 5% CO2 for 4 hours. Then 150 μl of a medium containing TPA (phorbol 12-tetradecanoate 13-acetate, Sigma), mouse IFN-γ (interferon-γ, eBioscience), and each sample was added and incubation was carried out for 24 hours. TPA and IFN-γ were added at a final concentration of 400 nM and 10 units/ml, respectively. As samples, isomerized hop extract was added at a concentration of 5, 10, 20, and 30 μ/ml and isohumulone (IH(F)) and isohumulone (IcH(G)) were added individually at a concentration of 5, 10, 20, and 40 μM.
After completing incubation, the amount of TNF-α in the culture fluid was measured using a mouse TNF-α ELISA kit(eBioscience). The amount of TNF-α was expressed as a relative value by setting the value for the control as 100% (n=3, mean±standard variation). As a positive control, 15dPGJ2 (Cayman Chemical) was used.

In the case of `CC(C)=CCC(=O)C1(O)C(O)=C(C(=O)CC(C)C)C(=O)C1CC=C(C)C` (stereo not shown) [IH (F), isohumulone], the TNF-α production entry is reported as “concentration-dependently suppressed”.
